Measurements taken from patent publication US8679478B2, “Methods of lysosomal storage disease therapy” (Duke University, priority 2010, dated 2014).

How the values were obtained:
Assay type in all cases: in vivo, mouse
[1] = test system: GAA-KO mice; assay: Weight gain, ERT plus clenbuterol; conditions: ERT plus clenbuterol v. ERT alone; male mice; p<0.05 at weeks 1-3
Method: (§1) GAA-KO mice were administered four weekly doses of rhGAA (20 mg/kg), and treated with clenbuterol (n=5) or ERT alone (n=5). […] Mean+/−standard deviation are shown. Statistically significant differences indicated (*=p<0.05; **=p<0.01).
The efficacy from gene therapy was increased by β2 agonist stimulation from clenbuterol treatment, and this benefit might be expected to affect ERT in Pompe disease, as well. Therefore, groups of 3 month-old GAA-KO mice were treated with four weekly doses of rhGAA (20 mg/kg), with or without concurrent clenbuterol treatment.

[2] = test system: immune tolerant GAA-KO mice; assay: Wire hang testing, ERT plus β2 agonist; conditions: clenbuterol plus ERT v. ERT alone
Method: (§2) GAA-KO mice were administered four weekly doses of rhGAA (20 mg/kg), and treated with medium dose clenbuterol (n=7), albuterol (n=4) or untreated (n=6 or 3). […] Mean+/−standard deviation are shown. P values indicate statistically significant differences (lines).
(§3) Two β2 agonists were evaluated in combination with ERT, clenbuterol and albuterol. The dose of clenbuterol was reduced 5-fold from the concentration used in Example 4, to 6 mg/l in drinking water, while albuterol was evaluated at the higher dose (30 mg/l in drinking water). Groups of 3 month-old immune tolerant GAA-KO mice (Raben et al., Human Mol. Genet., 2001, 10:2039-2047) were treated with four weekly doses of rhGAA (20 mg/kg body weight), with or without concurrent β2 agonist treatment.
(§4) Mice were sacrificed 7 days after the last injection. Selected tissues were collected for GAA enzyme activity and glycogen content analyses. […] GAA activity and glycogen content analyses, Rotarod testing, and Western blot detection of CI-MPR was performed essentially as described (Koeberl et al., Mol. Genet. Metab., 2011, 103:107-112. Wire hang testing was performed with a 0.5 cm mesh hardware cloth fixed to an 8 by 10 inch frame. Mice were placed on the wire mesh, which was slowly inverted 6 inches over a cage containing paper bedding. The latency, or time until the mouse fell into the cage, was recorded.

[3] = test system: CI-MPR; assay: Western blot and densitometry of CI-MPR expression in skeletal muscle and brain; conditions: following clenbuterol treatment
Method: Western blot detection of CI-MPR and control proteins, β-actin or glyceraldehydes-3-phosphate dehydrogenase (GAPDH) in the tissues of GAA-KO mice is shown, with molecular weights indicated. Each lane represents an individual mouse. Equivalent quantities of tissue homogenate were loaded for each mouse. […] Mean+/−standard deviation are shown. Statistically significant differences indicated (*=p<0.05; **=p<0.01).
(§5) For in vivo analysis of AAV vectors, stocks were administered intravenously (via the retroorbital sinus) in 3 month-old and 15 month-old GAA-KO mice, and to 3 month-old tolerant GAA-KO and DKO mice. Clenbuterol (30 μg/ml) was administered to groups of 3 month-old vector-injected and mock-injected male GAA-KO mice in drinking water for 28 days. At the indicated time points post-injection, tissue samples were obtained and processed as described below. All animal procedures were done in accordance with Duke University Institutional Animal Care and Use Committee-approved guidelines. GAA activity and glycogen content were analyzed essentially as described (Sun et al., Mol. Ther., 2005, 11:889-898; Sun et al., Mol. Ther., 2005, 11: 57-65). Rotarod testing was performed essentially as described (Sun, B. D. et al. 2005). Western blotting of hGAA was performed essentially as described (Amalfitano et al., Proc. Natl. Acad. Sci. USA, 1999, 96: 8861-8866) using the hGAA monoclonal antibody (courtesy of Genzyme Corp., Framingham, Mass.) and the CI-MPR antibody (catalog number GTX28093; Gene Tex, Irvine, Calif.).

[4] = test system: immune tolerant GAA-KO mice; assay: Weight of gastrocnemius, ERT plus β2 agonist; conditions: clenbuterol plus ERT v. ERT alone or albuterol plus ERT
Method: as §2, §3, §4

[5] = test system: GAA-KO mice; assay: Rotarod testing, ERT (rhGAA) plus clenbuterol; conditions: rhGAA 20 mg/kg weekly x4 plus clenbuterol v. ERT alone; male mice; p=0.04 at 1 week
Method: as §1
as §5, with “Calif.). […]” for “Calif.).”

[6] = test system: GAA-KO mice; assay: Rotarod testing, liver-targeted gene therapy plus clenbuterol
Method: (§6) FIG. 4A-4B depicts enhanced Rotarod performance and weight gain following liver-targeted gene therapy plus clenbuterol treatment. The GAA-KO mice (5 per group) were injected with AAV-LSPhGAA (2×10^10 vector particles/mouse). Vector treated mice were treated with clenbuterol or untreated. Non-vector treated GAA-KO mice were treated with clenbuterol or untreated to serve as controls. Mice were euthanized for tissue analysis 4 weeks after vector injection. […] Mean+/−standard deviation are shown. Statistically significant differences indicated (*=p<0.05; **=p<0.01).
as §5, with “Western blotting of hGAA was performed essentially as described (Amalfitano et al., Proc. Natl. Acad. Sci. USA, 1999, 96: 8861-8866) using the hGAA monoclonal antibody (courtesy of Genzyme Corp., Framingham, Mass.) and the CI-MPR antibody (catalog number GTX28093; Gene Tex, Irvine, Calif.).” left out

[7] = test system: GAA-KO mice; assay: Weight gain, liver-targeted gene therapy plus clenbuterol; conditions: vector plus clenbuterol v. mock treatment; p=0.06
Method: as §6
as §5, with “Western blotting of hGAA was performed essentially as described (Amalfitano et al., Proc. Natl. Acad. Sci. USA, 1999, 96: 8861-8866) using the hGAA monoclonal antibody (courtesy of Genzyme Corp., Framingham, Mass.) and the CI-MPR antibody (catalog number GTX28093; Gene Tex, Irvine, Calif.).” left out

For `CC(C)(C)NCC(O)c1cc(Cl)c(N)c(Cl)c1` (stereo not shown) [clenbuterol], the weight gain [1] was “increased weight gain”, the Wire hang latency [2] was “increased significantly” and the “CI-MPR signal (densitometry of Western blots)” value (shortened to “CI-MPR signal”) ([3]; EDL) was “increased”. For the same compound, the “CI-MPR signal” value ([3]; cerebellum) was “increased”, the “CI-MPR signal” value ([3]; cerebrum) was “increased” and the “weight of the gastrocnemius” value [4] was “increased”. For the same compound, the Rotarod latency [5] was “increased Rotarod latency”, the Rotarod latency increase ([6]; clenbuterol alone v. mock treatment, p=0.02) was 26% and the Rotarod latency increase ([6]; vector plus clenbuterol (30 μg/ml drinking water) v. vector alone, 4 weeks, p<2×10^−5) was 75%. For the same compound, the weight gain [7] was “trend toward greater weight gain”.
